For the data set the following is noted: 101.33 kPa, Liquid; for speed of sound: Sing-around technique in a fixed-path interferometer.

We go through three molecules from the NIST ThermoML archive (doi:10.1021/je060210c).

Numbers after ± are expanded uncertainties.

In the case of `CCCCCO` [pentan-1-ol], the mass density (as a rule, mass per unit of volume) by setting is: (283.15 K) 821.79 ± 0.92 kg/m3; (298.15 K) 810.83 ± 0.95 kg/m3; (313.15 K) 799.8 ± 0.98 kg/m3. Also, the speed of sound (usually the propagation velocity of pressure waves in the medium) reads like this: (283.15 K) 1325.9 ± 1.3 m/s; (298.15 K) 1274.1 ± 1.2 m/s; (313.15 K) 1225.5 ± 1.2 m/s.
Consider `CCCC(C)O` (stereo not drawn) [pentan-2-ol], for which the mass density is, setting by setting: (283.15 K) 816.77 ± 1.9 kg/m3; (298.15 K) 804.97 ± 1.9 kg/m3; (313.15 K) 792.42 ± 2 kg/m3. For the same molecule, the speed of sound is given as 1286.7 ± 2.1 m/s (283.15 K), 1232.6 ± 2.1 m/s (298.15 K) and 1168.1 ± 2.1 m/s (313.15 K).
Turning to `C=C1CCC2CC1C2(C)C` (stereo not drawn) [β-pinene], the mass density (283.15 K) came to 879.07 ± 0.77 kg/m3, the mass density (298.15 K) is listed as 867.11 ± 0.8 kg/m3 and the mass density (313.15 K) stood at 854.87 ± 0.83 kg/m3. The speed of sound was determined as 1354.3 ± 1.3 m/s (283.15 K), 1295.6 ± 1.3 m/s (298.15 K) and 1236.3 ± 1.2 m/s (313.15 K).
